Source: patent US20260035367A1 (Celgene Corporation, priority 2021, published 2026)
Read-outs that look alike come from different tables or passages of the source.

Columns and labels:
[1] = biological target: T1, Recombinant human PKC-theta (His-tagged 362-706) (Homo sapiens, UniProt Q04759); test: PKC-theta inhibition assay (HTRF KinEASE kit); type: biochemical; details: ATP 6.5 μM, STK substrate 525 nM
T1 construct: Recombinant human PKC-theta (His-tagged 362-706); His
Method: PKC-theta and PKC-delta biochemical activities were measured using the PKC-theta HTRF KinEASEkit kit, according to manufacturer's instructions (Cisbio, catalogue number 61ST1PEJ). Briefly, the kinase buffer component of the kit was supplemented with 10 mM MgCl2, 1 mM DTT and 0.1% Tween 20. […] The streptavidin_XL665 and STK antibody-cryptate detection reagents were mixed according to the manufacturer's instructions. Test compounds were diluted in DMSO in a series of 10 semi-log step doses; 10 nL of each compound dose were dispensed in 384 well plates. […] The reaction was started by addition of the substrate and ATP and incubated at 25° C. for 30 minutes or 20 minutes for the PKC-theta and PKC-delta assays, respectively. The detection reagents were added, and the plate was incubated in the dark for 2 hours. […] The ratio of acceptor and donor emission signals was calculated for each well. Percent inhibition values were calculated from the HTRF ratios at different doses and fitted to a 4-parameter logistic curve to determine IC50 values (see Table 2).

[2] = biological target: T2, Recombinant human PKC-delta (His-tagged 345-676) (Homo sapiens, UniProt Q05655); test: PKC-delta inhibition assay (HTRF KinEASE kit); type: biochemical; details: ratio, PKC-theta vs PKC-delta HTRF; for PKC-theta/PKC-delta selectivity (binned): binned A to G
T2 construct: PKC-delta (His-tagged 345-676); His
T2 sequence (Q05655 345-676): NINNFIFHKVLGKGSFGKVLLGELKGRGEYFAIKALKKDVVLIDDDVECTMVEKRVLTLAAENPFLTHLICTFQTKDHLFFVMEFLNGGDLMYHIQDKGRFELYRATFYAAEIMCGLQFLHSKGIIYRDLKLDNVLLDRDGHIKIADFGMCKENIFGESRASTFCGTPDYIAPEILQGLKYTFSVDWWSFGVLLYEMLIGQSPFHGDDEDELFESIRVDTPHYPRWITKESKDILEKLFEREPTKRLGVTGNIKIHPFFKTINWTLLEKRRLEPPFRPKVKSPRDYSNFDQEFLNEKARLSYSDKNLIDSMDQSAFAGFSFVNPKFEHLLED

[3] = test system: IL-2 secretion by human effector memory T cells (TEM); test: Effector memory T cells IL-2 release assay (CD3/CD28 stimulation, HTRF IL-2 detection); type: cell-based; details: 24 h; for IC50: Homo sapiens, T-cell
Method: Test compound-mediated inhibition of NFκB signalling in T cells was assessed by quantification of the IL-2 secretion by human effector memory T cells (TEM) upon treatment and stimulation. Human TEM cells were isolated from buffy coats of healthy donors obtained from the French blood bank.
Finally, 10 doses of test compound, originally prepared in DMSO by serial semi-log step dilution, were also added to cells in triplicate wells. Final DMSO concentration in wells was 0.1% in a total volume of 100 μL complete medium. Plates were incubated for 24 h at 37° C. in 5% CO2 atmosphere. After incubation, cell suspensions were centrifuged at 400×g and culture supernatants were recovered and stored at −80° C. […] IL-2 levels were determined in cell supernatants using an HTRF human IL-2 detection kit (Cisbio, cat #62HIL02PEH).

[4] = binned A to H, read-out: PKC-theta HTRF pIC50 (binned) (converted)
[5] = read-out: PKC-theta HTRF pIC50 (converted)
[6] = binned A to G, read-out: PKC-theta IL2 pIC50 (binned) (converted)
[7] = read-out: PKC-theta IL2 pIC50 (converted)

T1 sequence (Q04759 362-706): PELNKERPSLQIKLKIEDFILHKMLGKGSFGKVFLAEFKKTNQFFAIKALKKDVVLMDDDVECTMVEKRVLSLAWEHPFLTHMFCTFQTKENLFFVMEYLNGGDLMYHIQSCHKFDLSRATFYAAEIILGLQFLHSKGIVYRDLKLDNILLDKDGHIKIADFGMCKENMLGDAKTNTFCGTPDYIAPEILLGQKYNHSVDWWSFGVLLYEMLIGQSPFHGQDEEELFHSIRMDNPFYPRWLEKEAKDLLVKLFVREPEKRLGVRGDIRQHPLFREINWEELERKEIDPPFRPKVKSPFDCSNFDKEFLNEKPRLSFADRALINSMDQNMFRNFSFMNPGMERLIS

| Compound | IC50 [1, 4] [nM] | IC50 [1, 5] [nM] | PKC-theta/PKC-delta selectivity [2] | PKC-theta/PKC-delta selectivity (binned) [2] | IC50 [3, 6] [nM] | IC50 [3, 7] [nM] | PKC-theta IL2 pIC50 [3] | PKC-theta IL2 pIC50 (binned) ([3]; binned A to G) |
| --- | --- | --- | --- | --- | --- | --- | --- | --- |
| CC1(C)C(=O)Nc2ncc(Br)c(-c3cc(F)cc(N4CCNCC4)c3)c21 [Example 69] | 31.6 to 100 | 39.8 | 1 | F (a ratio of between 1 and 5) | 316 to 1000 | 398 | – | – |
| COC[C@@H]1CN(c2cc(C(F)(F)F)cc(-c3ccnc4c3C(C)(C)C(=O)N4)n2)CCN1 [Example 120] | 10 to 31.6 | 25.1 | 15 | D (a ratio of between 10 and 20) | 316 to 1000 | 501 | – | – |
| CC1(C)C(=O)Nc2nccc(-c3cc(C(F)(F)F)cc(N4CC5CCC4CN5)n3)c21 (stereo not drawn) [Example 137] | 10 to 31.6 | 12.6 | 16 | D (a ratio of between 10 and 20) | 100 to 316 | 251 | – | – |
| C[C@@H]1CNCCN1c1cc(Cl)cc(-c2ccnc3c2[C@](C)(O)C(=O)N3)n1 (single isomer, unassigned) [Example 105] | 0.316 to 1 | 1 | 7 | E (a ratio of between 5 and 10) | 10 to 31.6 | 20 | – | – |
| CC1(C)C(=O)Nc2nccc(-c3cc(C(F)(F)F)cc(N4CCN[C@@H](CO)C4)n3)c21 [Example 83] | 1 to 3.16 | 3.16 | 20 | D (a ratio of between 10 and 20) | 31.6 to 100 | 79.4 | – | – |
| CC1C(=O)Nc2nccc(-c3cccc(CN(C)C)c3)c21 (stereo not drawn) [Example 22] | 316 to 1000 | 501 | 1 | F (a ratio of between 1 and 5) | > 1000 | 1580 | – | – |
| C[C@@H]1CNCCN1c1cc(C(F)(F)F)cc(-c2ccnc3c2C(C)(C)C(=O)N3)n1 [Example 102] | 1 to 3.16 | 1.58 | 14 | D (a ratio of between 10 and 20) | 10 to 31.6 | 20 | – | – |
| O=c1[nH]c2nccc(-c3cccc(N4CCNCC4)n3)c2[nH]1 [Example 14] | 100 to 316 | 100 | 2 | F (a ratio of between 1 and 5) | 316 to 1000 | 631 | – | – |
| CC[C@@H]1CNCCN1c1cc(Cl)cc(-c2ccnc3c2[C@](C)(O)C(=O)N3)n1 (single isomer, unassigned) [Example 139] | 0.316 to 1 | 0.794 | 1 | F (a ratio of between 1 and 5) | 1 to 3.16 | 2 | – | – |
| C[C@@H]1CN(c2cc(Cl)cc(-c3ccnc4c3C(C)(O)C(=O)N4)c2)CCN1 (stereo partly drawn) [Example 76] | 31.6 to 100 | 50.1 | 11 | D (a ratio of between 10 and 20) | 316 to 1000 | 794 | – | – |
| O=c1[nH]c2nccc(-c3cccc(N4CCNCC4c4cccnc4)c3)c2[nH]1 (stereo not drawn) [Example 12] | > 1000 | 5010 | 1 | G (a ratio of 0 to 1) | > 1000 | 10000 | – | – |
| CC1(C)C(=O)Nc2nccc(-c3cccc(C4(CO)CCNC4)c3)c21 (stereo not drawn) [Example 43] | 3.16 to 10 | 7.94 | 3 | F (a ratio of between 1 and 5) | 316 to 1000 | 631 | – | – |
| C[C@H]1CN(c2cc(-c3ccnc4c3[C@@](C)(O)C(=O)N4)cc(C(F)(F)F)c2)CCN1 (single isomer, unassigned) [Example 81] | 10 to 31.6 | 25.1 | 9 | E (a ratio of between 5 and 10) | – | – | 6.7 | E (a measured pIC50 of between 6.5 and 7.0) |
| C[C@@]1(O)C(=O)Nc2nccc(-c3cc(C(F)(F)F)cc(N4CCNC(C(F)F)C4)n3)c21 (single isomer, unassigned) [Example 123] | 10 to 31.6 | 20 | 25 | C (a ratio of between 20 and 30) | > 1000 | 1580 | – | – |
| CC[C@H]1CN(c2cc(Cl)cc(-c3ccnc4c3C(C)(OC)C(=O)N4)n2)CCN1 (stereo partly drawn) [Example 130] | 3.16 to 10 | 7.94 | 8 | E (a ratio of between 5 and 10) | 100 to 316 | 158 | – | – |
| CCC1(C)C(=O)Nc2nccc(-c3cc(Cl)cc(N4CCNC[C@H]4C)n3)c21 (stereo partly drawn) [Example 146] | 1 to 3.16 | 2.51 | 4 | F (a ratio of between 1 and 5) | 10 to 31.6 | 25.1 | – | – |
| C[C@H]1CN(c2cc(Cl)cc(-c3ccnc4c3[C@](C)(O)C(=O)N4)n2)CCN1 (single isomer, unassigned) [Example 110] | 0.316 to 1 | 1 | 16 | D (a ratio of between 10 and 20) | 10 to 31.6 | 25.1 | – | – |
| C[C@@H]1CNCCN1c1cc(Cl)cc(-c2c(F)cnc3c2C(C)(C)C(=O)N3)n1 [Example 155] | 3.16 to 10 | 3.98 | 17 | D (a ratio of between 10 and 20) | 31.6 to 100 | 50.1 | – | – |
| CN1CCN(c2cc(C(F)(F)F)cc(-c3ccnc4c3C(C)(C)C(=O)N4)n2)CC1 [Example 99] | 10 to 31.6 | 31.6 | 22 | C (a ratio of between 20 and 30) | 316 to 1000 | 794 | – | – |
| CC1(C)C(=O)Nc2nccc(-c3cc(C(F)(F)F)cc(N4CCNCC4)n3)c21 [Example 66] | 3.16 to 10 | 5.01 | 13 | D (a ratio of between 10 and 20) | 31.6 to 100 | 79.4 | – | – |
| C[C@H]1CNCCCN1c1cc(C(F)(F)F)cc(-c2ccnc3c2C(C)(C)C(=O)N3)n1 [Example 189] | 3.16 to 10 | 5.01 | 16 | D (a ratio of between 10 and 20) | 100 to 316 | 251 | – | – |
| O=c1[nH]c2nccc(-c3cccc(N4CCNCC4)c3)c2o1 [Example 6] | > 1000 | 1000 | 2 | F (a ratio of between 1 and 5) | > 1000 | 10000 | – | – |
| O=c1[nH]c2nccc(-c3cc(C(F)(F)F)cc(N4CCNCC4)n3)c2[nH]1 [Example 68] | 31.6 to 100 | 31.6 | 11 | D (a ratio of between 10 and 20) | 316 to 1000 | 501 | – | – |
| CCC1(C)C(=O)Nc2nccc(-c3cc(Cl)cc(N4CCN[C@@H](C)C4)n3)c21 (stereo partly drawn) [Example 147] | 1 to 3.16 | 2.51 | 10 | D (a ratio of between 10 and 20) | 31.6 to 100 | 31.6 | – | – |
| C[C@@]1(O)C(=O)Nc2nccc(-c3cc(Cl)cc(N4CCNCC(F)C4)n3)c21 (single isomer, unassigned) [Example 91] | 3.16 to 10 | 6.31 | 6 | E (a ratio of between 5 and 10) | 100 to 316 | 200 | – | – |
| CC1(C)C(=O)Nc2nccc(-c3cccc(N4CCNCC4)n3)c21 [Example 38] | 3.16 to 10 | 10 | 4 | F (a ratio of between 1 and 5) | 100 to 316 | 158 | – | – |
